# According to article PMC11374673, “Discovery of isoquinoline sulfonamides as allosteric gyrase inhibitors with activity against fluoroquinolone-resistant bacteria” (Nature Chemistry, 2024):
# “And” between values parts separate entries of the source, which are not always exact repeats. Equal entries are not always repeated.
# How the values were obtained:
# [1] = test system: E. coli W3110; experiment: MIC by broth microdilution; type: cell-based, Escherichia coli
# Summary of the method: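 Exponential-phase cultures (OD600 0.5, 37 °C aerobic), diluted 100-fold in CAMHB, were added to twofold compound dilution series. Keio strains grown with 50 µg ml^−1 kanamycin. Plates incubated overnight at 37 °C, shaking at 600 r.p.m.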
# [2] = test system: 60-resistant (60-r) isolates of E. coli W3110; experiment: microbe, parasite or virus in culture; type: cell-based, Escherichia coli
# Protocol: MIC was determined by broth microdilution. Single-colony cultures were grown to exponential phase (OD600 of 0.5) aerobically at 37 °C. In case of strains from the Keio collection, 50 µg ml^−1 kanamycin was supplemented to the media to ascertain a homogeneous population. The bacterial suspensions were diluted 100-fold in CAMHB and 50 µl was added to a twofold serial dilution series of test compounds (50 µl per well) in polypropylene 96-well microtitre plates to reach a volume of 100 µl. The plates were sealed with breathable membranes and incubated overnight at 37 °C with constant shaking (600 r.p.m.). The MIC was determined as the lowest concentration at which no visible bacterial growth was observed as compared with the inoculum controls from the median of a minimum of triplicates.
# The plates were incubated at 37 °C and checked for growth after 24 and 48 h. […] Nine colonies with an increased MIC were selected for further analysis and stored as glycerol stocks.
# [3] = test system: E. coli W3110; experiment: H-89 derivatives rescreen, 50 µM; type: cell-based; details: Escherichia coli, H-89 derivative rescreen, highest 50 µM
# Protocol: From glycerol stocks, E. coli W3110 was cultured on blood agar plates (PB5039A, Thermo Scientific) by overnight (18 ± 2 h) aerobic incubation at 37 °C. A single colony was transferred to tryptic soy broth (TSB, 02-200-500, Scharlab). The cultures were grown to exponential phase (OD600 of 0.5) at 37 °C. The bacterial suspensions were diluted 200-fold in cation-adjusted Mueller–Hinton broth (CAMHB) and 99 µl was added to a library of test compounds (1 µl 10 mM DMSO stock, per well in technical duplicates) in polypropylene 96-well microtitre plates to reach a volume of 100 µl and a final concentration of 100 µM for each test compound and a maximum of 1% DMSO. […] Screening hits were selected from the wells where no visible bacterial growth was observed, as compared with the inoculum controls containing 1% DMSO. The follow-up screen of H-89 derivatives was performed under similar conditions with a final concentration of 50 µM.
# [4] = test system: E. coli W3110; experiment: Time-kill assay
# Protocol: From glycerol stocks, bacterial strains were cultured on blood agar plates by overnight incubation at 37 °C. Subsequently, a single colony was cultured in TSB overnight at 37 °C. The culture was diluted 100-fold in fresh CAMHB and grown until early exponential phase (OD600 of 0.25) followed by 100-fold dilution in media. The culture was split in separate culture tubes containing 2 ml. […] The supernatant was discarded and pellets were washed once with filter-sterilized PBS, then resuspended in an equal volume of fresh buffer and samples were tenfold serially diluted until a 10^5 dilution. Then, 10 µl of the appropriate dilutions were inoculated on LB agar plates in technical duplicates, subsequently allowed to evaporate and incubated at 37 °C for 18 h. The colonies were counted and used to calculate the colony forming unit (c.f.u.) per ml remaining in the original culture by taking the dilution factors into account. The experiment was performed in biological duplicates.
# [5] = Escherichia coli, W3110, read-out: MIC E. coli W3110
# [6] = Escherichia coli, E. coli W3110 60-r1
# [7] = Escherichia coli, E. coli W3110 60-r3
# [8] = Escherichia coli, E. coli W3110 60-r6
# [9] = WT, broth microdilution, read-out: MIC E. coli W3110
molecule,measurement,setting,value
CC(C)(O/N=C(\C(=O)N[C@@H]1C(=O)N2C(C(=O)[O-])=C(C[n+]3ccccc3)CS[C@H]12)c1csc(N)n1)C(=O)O [Ceftazidime],MIC,"[1]; Escherichia coli, W3110",0.4 µg/mL
same,MIC,[1]; [5],0.75 µM
same,MIC,[2]; [6],0.375 µM and 0.2 µg/mL
same,MIC,[2]; [7],0.75 µM and 0.4 µg/mL
same,MIC,[2]; [8],0.75 µM and 0.4 µg/mL
O=C(N[C@H](CO)[C@H](O)c1ccc([N+](=O)[O-])cc1)C(Cl)Cl [Chloramphenicol],MIC,"[1]; Escherichia coli, W3110",4 µg/mL
same,MIC,[1]; [5],12.4 µM
same,MIC,[2]; [6],12.4 µM and 4 µg/mL
same,MIC,[2]; [7],12.4 µM and 4 µg/mL
same,MIC,[2]; [8],12.4 µM and 4 µg/mL
O=S(=O)(NCCNCCCc1ccc(-c2cnc3[nH]ccc3c2)cc1)c1ccc(Cl)cc1 [Compound 17],MIC,[3],> 50 µM
Cc1ccc(S(=O)(=O)NCCNCCCc2ccc(-c3cnc4[nH]ccc4c3)cc2)cc1 [Compound 18],MIC,[3],> 50 µM
O=S(=O)(NCCNCCCc1ccc(-c2cnc3[nH]ccc3c2)cc1)c1ccccc1 [Compound 19],MIC,[3],> 50 µM
COc1ccc(S(=O)(=O)NCCNCCCc2ccc(-c3cnc4[nH]ccc4c3)cc2)cc1 [Compound 20],MIC,[3],> 50 µM
O=C(CCC#Cc1cnc2[nH]ccc2c1)NCCNS(=O)(=O)c1cccc2cnccc12 [Compound 21],MIC,[3],> 50 µM
O=S(=O)(NCCNCCCc1ccc(-c2cnc3[nH]ccc3c2)cc1)c1ccc(Cl)c(Cl)c1 [Compound 22],MIC,[3],> 50 µM
O=C(CCc1ccc(-c2cnc3[nH]ccc3c2)cc1)NCCNS(=O)(=O)c1cccc([N+](=O)[O-])c1 [Compound 23],MIC,[3],> 50 µM
O=C(CCc1ccc(-c2cnc3[nH]ccc3c2)cc1)NCCNS(=O)(=O)c1cccc(Cl)c1 [Compound 24],MIC,[3],> 50 µM
O=C(CCc1ccc(-c2cnc3[nH]ccc3c2)cc1)NCCNS(=O)(=O)c1ccc(F)cc1 [Compound 25],MIC,[3],> 50 µM
Clc1cnc(N2CCCC2)nc1Nc1n[nH]c2ccccc12 [Compound 26],MIC,[3],> 50 µM
CC(C)(C)c1cc(NC(=O)CCC#Cc2cccnc2)no1 [Compound 27],MIC,[3],> 50 µM
CC(C)(C)c1cc(NC(=O)CCC#Cc2cnc3[nH]ccc3c2)no1 [Compound 28],MIC,[3],> 50 µM
CC(C)(C)c1cc(NC(=O)CCC#Cc2ccc(N)nc2)no1 [Compound 29],MIC,[3],> 50 µM
CC(C)(C)c1cc(C(=O)NCC#Cc2ccc(N)nc2)no1 [Compound 30],MIC,[3],> 50 µM
CC(C)(C)c1cc(C(=O)NCC#Cc2cnc3[nH]ccc3c2)no1 [Compound 31],MIC,[3],> 50 µM
CC(C)(C)c1cc(C(=O)NCC#Cc2cccnc2)no1 [Compound 32],MIC,[3],> 50 µM
CC(C)(C)c1cc(NC(=O)CCC#Cc2ccncc2)no1 [Compound 33],MIC,[3],> 50 µM
Nc1nccc2c(S(=O)(=O)NCCNC/C=C/c3ccc(-c4cccnc4)cc3)cccc12 [Compound 34],MIC,[3],> 50 µM
O=S(=O)(NCCNC/C=C/c1ccc(-c2cccnc2)cc1)c1cccc2cnccc12 [Compound 35],MIC,[3],> 50 µM
CS(=O)(=O)NCCNC/C=C/c1ccc(-c2cccnc2)cc1 [Compound 36],MIC,[3],> 50 µM
O=C(NCCNC/C=C/c1ccc(-c2cccnc2)cc1)c1cccc2cnccc12 [Compound 37],MIC,[3],> 50 µM
O=C(/C=C/c1ccc(-c2cccnc2)cc1)NCCNS(=O)(=O)c1cccc2cnccc12 [Compound 38],MIC,[3],> 50 µM
O=S(=O)(NCCNCCCCc1ccc(-c2cccnc2)cc1)c1cccc2cnccc12 [Compound 39],MIC,[3],> 50 µM
Nc1ncccc1-c1ccc(CCC(=O)NCCNS(=O)(=O)c2cccc3cnccc23)cc1 [Compound 40],MIC,[3],> 50 µM
Nc1ccc(-c2ccc(CCC(=O)NCCNS(=O)(=O)c3cccc4cnccc34)cc2)cn1 [Compound 41],MIC,[3],> 50 µM
CNC(=O)c1ccc(-c2ccc(CCC(=O)NCCNS(=O)(=O)c3cccc4cnccc34)cc2)cn1 [Compound 42],MIC,[3],> 50 µM
CNC(=O)c1ncccc1-c1ccc(CCC(=O)NCCNS(=O)(=O)c2cccc3cnccc23)cc1 [Compound 43],MIC,[3],> 50 µM
O=C(CCc1ccc(-c2cnc3[nH]ccc3c2)cc1)NCCNS(=O)(=O)c1cccc2cnccc12 [Compound 44],MIC,[3],> 50 µM
O=S(=O)(NCCNCCCc1ccc(-c2cnc3[nH]ccc3c2)cc1)c1cccc2cnccc12 [Compound 45],MIC,[3],> 50 µM
O=S(=O)(NCCNC/C=C/c1ccccc1-c1ccc2c(c1)OCO2)c1cccc2cnccc12 [Compound 46],MIC,[3],> 50 µM
C[C@@H](O)[C@H]1C(=O)N2C(C(=O)O)=C(SCCN=CN)C[C@H]12 [Imipenem],MIC,"[1]; Escherichia coli, W3110",0.1 µg/mL
same,MIC,[1]; [5],0.375 µM
same,MIC,[2]; [6],0.75 µM and 0.2 µg/mL
same,MIC,[2]; [7],0.375 µM and 0.1 µg/mL
same,MIC,[2]; [8],0.375 µM and 0.1 µg/mL
C[C@@H](O)[C@H]1C(=O)N2C(C(=O)O)=C(S[C@@H]3CN[C@H](C(=O)N(C)C)C3)[C@H](C)[C@H]12 [Meropenem],MIC,"[1]; Escherichia coli, W3110",0.02 µg/mL
same,MIC,[1]; [5],0.05 µM
same,MIC,[2]; [6],0.09 µM and 0.04 µg/mL
same,MIC,[2]; [7],0.05 µM and 0.02 µg/mL
same,MIC,[2]; [8],0.05 µM and 0.02 µg/mL
"COc1cc(Cc2cnc(N)nc2N)cc(OC)c1OC [TMP, trimethoprim]",MIC,"[1]; Escherichia coli, W3110",0.16 µg/mL
same,MIC,[1]; [5],0.375 µM
same,"time kill kinetics, bacterial count","[4]; 4xMIC, 0.5 h, n = 1 and n = 2",5.161 and 5.204
same,"time kill kinetics, bacterial count","[4]; 4xMIC, 1 h",5.041 and 5.342
same,"time kill kinetics, bacterial count","[4]; 4xMIC, 2 h",5.322 and 4.954
same,"time kill kinetics, bacterial count","[4]; 4xMIC, 4 h",4.255 and 4.204
same,"time kill kinetics, bacterial count","[4]; 4xMIC, 8 h",2.845 and 2.602
same,"time kill kinetics, bacterial count","[4]; 4xMIC, 24 h",2
same,"time kill kinetics, bacterial count","[4]; 8xMIC, 0.5 h",6.217 and 6.23
same,"time kill kinetics, bacterial count","[4]; 8xMIC, 1 h",4.978 and 5.097
same,"time kill kinetics, bacterial count","[4]; 8xMIC, 2 h",5.176 and 4.929
same,"time kill kinetics, bacterial count","[4]; 8xMIC, 4 h",3.544 and 3.423
same,"time kill kinetics, bacterial count","[4]; 8xMIC, 8 h",2.699
same,"time kill kinetics, bacterial count","[4]; 8xMIC, 24 h",2.301 and 2
same,MIC,[2]; [6],0.375 µM and 0.16 µg/mL
same,MIC,[2]; [7],0.18 µM and 0.08 µg/mL
same,MIC,[2]; [8],0.375 µM and 0.16 µg/mL
Colistin,MIC,[1]; E. coli W3110,0.5 µg/mL
same,MIC,[1]; [9],0.19 µM
same,MIC,[2]; E. coli W3110 60-r1,0.375 µM and 1 µg/mL
same,MIC,[2]; E. coli W3110 60-r3,0.375 µM and 1 µg/mL
same,MIC,[2]; E. coli W3110 60-r6,0.19 µM and 0.5 µg/mL
Neomycin,MIC,[1]; E. coli W3110,1 µg/mL
same,MIC,[1]; [9],1.5 µM
same,MIC,[2]; E. coli W3110 60-r1,0.75 µM and 0.5 µg/mL
same,MIC,[2]; E. coli W3110 60-r3,1.5 µM and 1 µg/mL
same,MIC,[2]; E. coli W3110 60-r6,0.75 µM and 0.5 µg/mL
